# From the PolyMetriX glass transition set
# ± gives the standard deviation of the reports.
row,glass transition temperature [°C],Structure (SMILES)
1,89.00,*CCCCCCOC(=O)Nc1ccc(NC(=O)OCCCCCCOc2ccc(-c3ccc(O*)cc3)cc2)c(C)c1 (repeat unit)
2,34.50,*Oc1cc(CCCCCCCCCCC)cc(OC(=O)c2cccc(C(*)=O)c2)c1 (repeat unit)
3,108.00,*c1ccc(C(C#N)(C(=O)O)C(*)(C#N)C(=O)O)cc1 (repeat unit)
4,260.50 ± 3.5,*c1ccc(Oc2ccc(Oc3ccc(N4C(=O)c5cccc(Oc6cccc7c6C(=O)N(*)C7=O)c5C4=O)cc3)cc2)cc1 (repeat unit)
5,-9.00,*ON(C(F)(F)F)C(F)(C(*)(F)F)C(F)(F)F (repeat unit)
6,53.00,*CCCCOc1ccc(C(=O)OCCOC(=O)c2ccc(O*)cc2)cc1 (repeat unit)
7,174.00,*Oc1ccc(-c2ccc(-c3ccc(Oc4ccc(C(=O)c5cccc(C(=O)c6ccc(*)cc6)c5)cc4)cc3)cc2)cc1 (repeat unit)
8,243.00,*c1ccc(Oc2ccc(-c3nc4cc(Oc5ccc6nc(*)c(-c7ccccc7)nc6c5)ccc4nc3-c3ccccc3)cc2)cc1 (repeat unit)
9,142.00,*NC1CCC(CC2CCC(NC(=O)CCCCCCCCCCC(*)=O)CC2)CC1 (repeat unit)
10,238.00,*CCCCCCCCc1nc2ccc(-c3ccc4nc(*)sc4c3)cc2s1 (repeat unit)
11,300.00,*C1C(*)C2CC1C(C(=O)OCCC13CC4CC(CC(C4)C1)C3)C2C(=O)OCCC12CC3CC(CC(C3)C1)C2 (repeat unit)
12,123.7,*c1ccc2c(c1)C(=O)N(c1ccc(Oc3ccc(N4C(=O)c5ccc(C(C)(C)CCCCCCCCC(*)(C)C)cc5C4=O)cc3)cc1)C2=O (repeat unit)
13,74.00,*C(=O)OCCCCCCCCCCCCOC(=O)c1ccc(NC(=O)c2ccc(N3C(=O)c4ccc(*)cc4C3=O)cc2)cc1 (repeat unit)
14,123.00,*Oc1ccc(C(=O)c2ccc(Oc3ccc(C(=O)c4ccc(Oc5cccc(Cc6cccc(*)c6)c5)cc4)cc3)cc2)cc1 (repeat unit)
15,204.00,*C(=O)Oc1ccc(C2(c3ccc(OC(=O)c4ccc5c(c4)C(=O)N(c4ccc(-c6ccc(N7C(=O)c8ccc(*)cc8C7=O)cc6C)c(C)c4)C5=O)cc3)CCCCCCCCCCC2)cc1 (repeat unit)
16,-69.80,*O[Si](*)(CCCOCCOCCOCCOCCOC)CCCOCCOCCOCCOCCOC (repeat unit)
17,7.00,*CC(*)(CC(=O)OCCCC1CCCCC1)C(=O)OCCCC1CCCCC1 (repeat unit)
18,138.00,*Oc1ccc(C(C)(C)c2ccc(OC(*)=O)c(Cl)c2)cc1C (repeat unit)
19,52.00,*O[Si](C)(C)CCCC(=O)Oc1ccc(/C=N/c2ccc(Oc3ccc(/N=C/c4ccc(OC(=O)CCC[Si](*)(C)C)cc4)cc3)cc2)cc1 (repeat unit)
20,15.00,*Oc1ccc(C(=O)OCCCCCCOC(=O)c2ccc(*)cc2)cc1 (repeat unit)
21,-31.5,*CC(C)(C)COC(=O)CCCCC(=O)O* (repeat unit)
22,51.00,*CCCCCCOC(=O)c1ccc(-c2ccc(C(=O)O*)cc2)cc1 (repeat unit)
23,91.00,*CC(O)COc1ccc(C(C)(C)c2ccc(O*)cc2)cc1 (repeat unit)
24,95.00,*CC(O)COc1ccc(C(C)(CC)c2ccc(O*)cc2)cc1 (repeat unit)
25,230.00,*c1c(C)cc(C(C)(C)c2cc(C)c(S(*)(=O)=O)c(C)c2)cc1C (repeat unit)
26,167.00,*Oc1ccc(C(=C(Cl)Cl)c2ccc(OC(*)=O)cc2)cc1 (repeat unit)
27,132.00,*Oc1ccc(-c2ccc(OC(=O)c3ccc(C(*)=O)cc3)cc2)cc1-c1ccccc1 (repeat unit)

row,glass transition temperature [°C],Structure (SMILES)
1,305.00,*Nc1cc(NC(=O)c2cccc(C(*)=O)c2)cc(C(=O)Oc2ccc(Oc3ccc(C#N)c(C#N)c3)cc2)c1 (repeat unit)
2,269.00,*Oc1ccc(NC(=O)c2ccc(C(=O)Nc3ccc(Oc4ccc(C5(c6ccc(*)cc6)C6CC7CC(C6)CC5C7)cc4)cc3)c3ccccc23)cc1 (repeat unit)
3,34.00,*CCCNC(=O)CCCCC(=O)NCCCO* (repeat unit)
4,121.00,*CCCCCCNC(=O)c1ccc(C(=O)N*)c(Sc2ccccc2)c1 (repeat unit)
5,264.00,*C(=O)Nc1ccc(/N=N/c2ccc([N+](=O)[O-])cc2)c(NC(=O)c2ccc3c(c2)C(=O)N(c2c(C)cc(Cc4cc(C)c(N5C(=O)c6ccc(*)cc6C5=O)c(C)c4)cc2C)C3=O)c1 (repeat unit)
6,169.00,*c1ccc2c(c1)C(=O)N(c1ccc(OCCCCOc3ccc(N4C(=O)c5ccc(C(*)(C(F)(F)F)C(F)(F)F)cc5C4=O)cc3)cc1)C2=O (repeat unit)
7,79.50,*Oc1ccc(Cc2ccc(Cc3ccc(OC(*)=O)cc3)cc2)cc1 (repeat unit)
8,266.00,*c1ccc(Oc2ccc(N3C(=O)c4ccc(Oc5c(C)cc(Cc6cc(C)c(Oc7ccc8c(c7)C(=O)N(*)C8=O)c(C)c6)cc5C)cc4C3=O)cc2)cc1 (repeat unit)
9,95.50,*OC(=O)OCC1OC(C)(C)OC1COC(=O)OC1COC2C(*)COC12 (repeat unit)
10,335.00,*c1ccc(C(=O)Nc2ccc(N3C(=O)c4ccc(-c5ccc6c(c5)C(=O)N(*)C6=O)cc4C3=O)cc2)cc1 (repeat unit)
11,231.00,*c1ccc(Oc2ccc(NC(=O)c3cccc(Oc4ccc5c(c4)C(=O)N(*)C5=O)c3)cc2)cc1 (repeat unit)
12,324.00,*c1ccc(Cc2ccc(N3C(=O)c4ccc(-c5ccc6c(c5)C(=O)N(*)C6=O)cc4C3=O)c(C(C)(C)C)c2)cc1C(C)(C)C (repeat unit)
13,243.00,*C(=O)Nc1ccc(Oc2ccc(Oc3ccc(NC(=O)c4ccc5c(c4)C(=O)N(c4ccc(S(=O)(=O)c6ccc(N7C(=O)c8ccc(*)cc8C7=O)cc6)cc4)C5=O)cc3)cc2)cc1 (repeat unit)
14,356.00,*c1ccc(Cc2ccc(N3C(=O)c4c(c(-c5ccccc5)c(-c5ccc(Oc6ccc(-c7c(-c8ccccc8)c8c(c(-c9ccccc9)c7-c7ccccc7)C(=O)N(*)C8=O)cc6)cc5)c(-c5ccccc5)c4-c4ccccc4)C3=O)cc2)cc1 (repeat unit)
15,181.00,*Oc1ccc(C2(c3ccc(OC(=O)c4ccc(Oc5ccc(C6(c7ccc(Oc8ccc(C(*)=O)cc8)cc7)CCC(C(C)(C)C)CC6)cc5)cc4)cc3)CCCCCCCCCCC2)cc1 (repeat unit)
16,295.00,*Nc1ccc(NC(=O)c2cccc(C(*)=O)c2)cc1 (repeat unit)
17,43.00,*CC(*)(C)C(=O)OCCCCC1CCCCC1 (repeat unit)
18,181.00,*C(=O)Nc1ccc(C2(c3ccc(NC(=O)c4ccc5c(c4)C(=O)N(c4ccc(-c6ccc(N7C(=O)c8ccc(*)cc8C7=O)c(OC)c6)cc4OC)C5=O)cc3)c3ccccc3-c3ccccc32)cc1 (repeat unit)
19,305.00,*c1ccc2c(c1)C(=O)N(c1cc(C(c3ccc(OC(=O)C45CC6CC(CC(C6)C4)C5)c(N4C(=O)c5ccc(C(*)(C(F)(F)F)C(F)(F)F)cc5C4=O)c3)(C(F)(F)F)C(F)(F)F)ccc1OC(=O)C13CC4CC(CC(C4)C1)C3)C2=O (repeat unit)
20,0.00,*CCN(C)C(=O)CCCCCCCCC(=O)N(*)C (repeat unit)
21,-51.62,*O[Si](C)(C)CCC/N=C/c1cc(Cc2ccc(O)c(/C=N/CCC[Si](*)(C)C)c2)ccc1O (repeat unit)
22,218.00,*c1ccc(Oc2ccc(C(=O)c3ccc(Oc4ccc(C5(*)OC(=O)c6ccccc65)cc4)cc3)cc2)cc1 (repeat unit)
23,67.00,*C#CC#Cc1cc(C(C)(C)C)cc2c3cc(C(C)(C)C)cc(*)c3n(CCCCCCCCCCCCCCCC)c12 (repeat unit)
24,205.00,*c1ccc(Oc2cccc(Oc3ccc(N4C(=O)c5ccc(Oc6ccc(-c7ccc(Oc8ccc9c(c8)C(=O)N(*)C9=O)cc7)cc6)cc5C4=O)cc3)c2)cc1 (repeat unit)
25,97.00,*CCN(*)C(=O)c1cc(F)c(F)c(F)c1F (repeat unit)
26,353.00,*c1ccc(Oc2ccc(-c3cnc4cc5ncc(*)nc5cc4n3)cc2)cc1 (repeat unit)
27,121.00 ± 7.1,*c1ccc2c3ccc(-c4ccc(-c5ccc(-c6ccc(*)s6)c6nsnc56)s4)cc3n(C(CCCCCCCC)CCCCCCCC)c2c1 (repeat unit)

row,Structure (SMILES),glass transition temperature [°C]
1,*Oc1c(Cl)cc(*)cc1Br (repeat unit),188.50
2,*CC(*)c1ccccc1Br (repeat unit),149.00
3,*c1cccc(P(=O)(c2ccc(C(F)(F)F)cc2)c2cccc(-n3c(=O)c4c(-c5ccccc5)c5c(=O)n(*)c(=O)c5c(-c5ccccc5)c4c3=O)c2)c1 (repeat unit),337.00
4,*CCC(C)CCC(=O)S* (repeat unit),-50.00
5,*NC(CCC(=O)OCCCC)C(*)=O (repeat unit),-15.00
6,*CC(C)(C)C1C(=O)N(C(C)C)C(=O)C1* (repeat unit),145.00
7,*CC(*)c1nnn[nH]1 (repeat unit),72.00
8,*CC(*)(C)C(=O)OCCOCC (repeat unit),-16.00
9,*CC(*)c1ccccc1COCCC (repeat unit),97.00
10,*OP(=O)(Oc1c(Cl)c(Cl)c(*)c(Cl)c1Cl)Oc1c(Cl)c(Cl)c(Cl)c(Cl)c1Cl (repeat unit),133.00
11,*CC(CC)(CC)C(=O)O* (repeat unit),60.00
12,*CCOc1ccc(S(=O)(=O)c2ccc(OCCOP(=O)(O*)Oc3ccc(C)cc3)cc2)cc1 (repeat unit),46.00
13,*CCCCCCCCCCC(=O)N* (repeat unit),46.00
